Source: patent US20220390432A1, “METHODS OF CHARACTERIZING AND UTILIZING AGENT-CONDENSATE INTERACTIONS” (Whitehead Institute for Biomedical Research, priority 2019, published 2022)
No end group written: not given here.

T1: ER/MED1 droplets (Homo sapiens, UniProt P03372)
T1 sequence (P03372 1-595): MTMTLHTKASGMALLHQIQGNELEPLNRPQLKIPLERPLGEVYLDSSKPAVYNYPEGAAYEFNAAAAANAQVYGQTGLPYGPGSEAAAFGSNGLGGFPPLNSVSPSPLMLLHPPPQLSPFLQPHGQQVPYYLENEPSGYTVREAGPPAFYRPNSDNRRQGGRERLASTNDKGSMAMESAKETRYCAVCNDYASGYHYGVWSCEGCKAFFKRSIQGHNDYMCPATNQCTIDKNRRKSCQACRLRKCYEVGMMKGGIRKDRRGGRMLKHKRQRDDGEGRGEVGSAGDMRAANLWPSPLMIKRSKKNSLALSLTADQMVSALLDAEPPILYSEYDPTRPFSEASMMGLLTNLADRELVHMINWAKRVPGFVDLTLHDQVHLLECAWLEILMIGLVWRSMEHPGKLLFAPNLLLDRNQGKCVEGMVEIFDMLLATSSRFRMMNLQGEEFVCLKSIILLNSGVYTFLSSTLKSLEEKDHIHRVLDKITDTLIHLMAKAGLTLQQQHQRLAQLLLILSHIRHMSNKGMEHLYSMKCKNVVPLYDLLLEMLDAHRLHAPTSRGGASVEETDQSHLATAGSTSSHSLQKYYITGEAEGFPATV


Columns and labels:
[1] = tested on: MED1, BRD4, and POL2 condensates in HCT116 colon cancer cell lines; assay: Small molecule effects on transcriptional condensates in GFP-tagged HCT116 cells; format: cell-based, human; conditions: for effect of antimetabolites on MED1, BRD4 or POL2 condensates: 5 uM; for effect on transcriptional condensates: MED1-GFP, BRD4-GFP, POL2-GFP HCT116
Description: HCT116 colon cancer cell lines endogenously tagged with MED1-GFP, BRD4-GFP, POL2-GFP, or HP1a-GFP (Mock), all forming condensates in the nucleus.

[2] = biological target: T2, MED1 (Homo sapiens, UniProt Q15648); assay: In vitro droplet assay, small molecule partitioning into MED1 condensates; format: binding; conditions: confocal fluorescence; Example 2: 125 mM NaCl, 10% PEG, 10 μM protein; fluorescent or fluorescently labeled drug
T2 construct: MED1—amino acids 600-1581; 6xHis (N); made in house; host or cells: LOBSTR cells (E. coli)
T2 sequence (Q15648 600-1581): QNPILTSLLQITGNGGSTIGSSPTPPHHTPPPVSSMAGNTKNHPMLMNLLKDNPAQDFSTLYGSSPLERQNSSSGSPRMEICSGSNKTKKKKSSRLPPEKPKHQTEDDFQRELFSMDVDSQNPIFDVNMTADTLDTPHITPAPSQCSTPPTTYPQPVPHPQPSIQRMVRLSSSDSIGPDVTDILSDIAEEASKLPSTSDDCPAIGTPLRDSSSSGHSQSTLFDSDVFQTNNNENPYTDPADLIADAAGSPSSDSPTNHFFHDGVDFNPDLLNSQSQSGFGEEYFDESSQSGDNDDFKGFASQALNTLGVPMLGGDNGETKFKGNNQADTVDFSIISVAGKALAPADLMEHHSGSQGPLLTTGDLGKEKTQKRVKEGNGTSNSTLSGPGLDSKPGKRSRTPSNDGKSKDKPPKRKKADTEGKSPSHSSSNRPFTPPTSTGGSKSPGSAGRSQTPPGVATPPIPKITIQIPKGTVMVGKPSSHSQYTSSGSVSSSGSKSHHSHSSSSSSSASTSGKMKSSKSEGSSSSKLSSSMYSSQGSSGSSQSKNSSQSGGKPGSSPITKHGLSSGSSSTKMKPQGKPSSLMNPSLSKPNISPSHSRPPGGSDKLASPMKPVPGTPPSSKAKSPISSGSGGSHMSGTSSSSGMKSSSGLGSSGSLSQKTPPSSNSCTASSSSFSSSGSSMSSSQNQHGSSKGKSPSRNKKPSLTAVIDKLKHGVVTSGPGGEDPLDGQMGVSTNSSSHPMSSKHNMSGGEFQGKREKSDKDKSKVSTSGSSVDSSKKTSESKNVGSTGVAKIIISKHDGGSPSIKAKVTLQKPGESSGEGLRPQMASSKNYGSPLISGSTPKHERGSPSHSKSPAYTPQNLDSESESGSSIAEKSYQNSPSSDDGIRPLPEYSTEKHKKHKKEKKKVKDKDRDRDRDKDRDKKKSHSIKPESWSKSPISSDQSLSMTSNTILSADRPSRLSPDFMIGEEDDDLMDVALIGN
Description: (§1) Recombinant BFP, GFP, or mCherry fusion proteins were concentrated and desalted to an appropriate protein concentration and 125 mM NaCl using Amicon Ultra centrifugal filters (30K MWCO, Millipore). Recombinant protein was added too. […] The protein solution was immediately loaded onto glass bottom 384 well plate (Cellvis P384-1.5H-N) and imaged with an Andor confocal microscope with a 150× objective. Unless indicated, images presented are of droplets settled on the glass coverslip.
Drug and small molecule concentrations used in the droplet experiments are as follows:
To analyze in vitro droplet experiments, custom Python scripts using the scikit-image package were written to identify droplets and characterize their size, shape and intensity. Droplets were segmented from average images of captured channels on various criteria: (1) an intensity threshold that was three s.d. above the mean of the image; (2) size thresholds (20 pixel minimum droplet size); and (3) a minimum circularity (circularity=4π·areaperimeter2) (circularity=4π·areaperimeter2) of 0.8 (1 being a perfect circle). After segmentation, mean intensity for each droplet was calculated while excluding pixels near the phase interface, and background-corrected by subtracting intensity of dark images of droplet formation buffer only. Droplets identified in the channel of the fluorescent protein from ten independent fields of view were quantified for each experiment. The maximum intensity of signal within the droplets was calculated for each channel, the maximum intensity in the drug channel was termed “maximum drug intensity”. To obtain the intensity of drug or dye alone in the diffuse state (termed “diffuse drug intensity”), the compound was added to droplet formation buffer at same concentration used in the droplet assay. This was then imaged on a confocal fluorescent microscope. The resulting image was processed in FIJI to obtain the fluorescent intensity of the field. To obtain the fluorescent intensity of protein droplets that bleed through in the drug channel (termed “background intensity”) protein droplets were imaged in the fluorescent channel in which the drug fluoresces and processed as above to obtain the average maximum intensity within the droplet across 10 images. The enrichment ratio was obtained by the following formula [(maximum drug intensity)−(background intensity)]/(diffuse drug intensity). The box plots show the distributions of all droplets. Each dot represents an individual droplet.

[3] = Droplet formation assay of small molecule alone without any protein; format: physicochemical; conditions: without any protein added
Description: as §1, with “Recombinant protein was added too.” left out

[4] = biological target: T3, MED1 droplets (Homo sapiens, UniProt Q15648); assay: In vitro droplet drug chase out experiment; format: binding; conditions: 5 μM cisplatin-TR, 10 μM MED1, unlabeled compound 10, 100 or 500 μM
T3 construct: MED1—amino acids 600-1581; 6xHis (N); made in house; host or cells: LOBSTR cells (E. coli)
T3 sequence (Q15648 600-1581): as above
Description: For chase-out experiments 5 μM labeled cisplatin-TR was added to a MED1 droplets reaction (10 μM MED1, 50 mM Tris-HCl pH 7.5, 10% glycerol, 1 mM DTT, 10% PEG) in order to form MED1 droplets concentrated with Cisplatin-TR. Unlabeled transplatin or unlabeled cisplatin (vehicle, 10 μM, 100 μM, or 500 μM) were added to the droplet mixture and the amount of labeled cisplatin-TR remaining in the droplet is measured after chase out. 100 μM fluorescent FLTX1 was added to a MED1 droplets reaction (10 μM MED1, 50 mM Tris-HCl pH 7.5, 10% glycerol, 1 mM DTT, 10% PEG) in order to form MED1 droplets concentrated with FLTX1.

[5] = biological target: T1, ER/MED1 droplets; assay: Peptides added to ER/MED1 droplets; format: biochemical; conditions: for effect of peptide on ER partitioning / ER/MED1 droplet formation: in the presence of estrogen
Description: FIG. 24 illustrates ER/MED1 droplets contacted with a fluorescent peptide (left side).
A number of condensate components are known to form in vitro condensates. In general, one or more condensate components are added to solutions (e.g. aqueous solution) at varying concentrations in the presence of a salt (e.g., NaCl) and, optionally, a crowding agent (e.g., polyethylene glycol, Ficoll). See, e.g., Boija et al, Cell, vol. 175, no. 7, pp. 1842-1855 (2018); Sabari et al., Science, vol. 361, pp. 361-371 (2018); Bergeron-Sandoval et al., Cell, vol. 165, no. 5, pp. 1067-1079 (2016). May 19; 165(5):1067-1079, the relevant methods of which are specifically incorporated herein. In some embodiments, in vitro MED1 containing condensates are formed by adding about 10 μM of MED1 to a solution containing […] of NaCl and 10% PEG (e.g., PEG-8000).

[6] = biological target: T4, MED1 intrinsically disordered region, amino acids 600-1581, recombinant fluorescent fusion protein (human, UniProt Q15648 600-1581); assay: in vitro droplet assay, peptide added to ER/MED1 droplets
T4 construct: Scaffold protein of the in vitro droplets; also called MED1-IDR; MED1 IDR; not shown: N-terminal 6xHIS plus fluorescent protein (BFP, mEGFP or mCherry)
T4 sequence (Q15648 600-1581 limits assumed): as the sequence (Q15648 600-1581) above

Row | Molecule | effect on transcriptional condensates [1] | partitioning / incorporation into MED1 droplets [2] | further results
1 | Nc1ncn([C@@H]2O[C@H](CO)[C@@H](O)[C@H]2O)c(=O)n1 [5-Aza] | – | – | effect of antimetabolites on MED1, BRD4 or POL2 condensates [1]: no effect
2 | O=c1[nH]cc(F)c(=O)[nH]1 [5-FU, fluorouracil] | – | – | effect of antimetabolites on MED1, BRD4 or POL2 condensates [1]: no effect
3 | CNC(=O)Nc1ccc2c(c1)CC[C@@]21OC(=O)N(CC(=O)N(Cc2ccc(F)cc2)[C@@H](C)C(F)(F)F)C1=O [A485] | genomic release and consolidation of condensates | – | –
4 | CC(C)C[C@H](NC(=O)[C@H](Cc1ccccc1)NC(=O)c1cnccn1)B(O)O [Bortezomib] | global dissolution of condensates | – | –
5 | COc1cccc2c1C(=O)c1c(O)c3c(c(O)c1C2=O)C[C@@](O)(C(C)=O)C[C@@H]3O[C@H]1C[C@H](N)[C@H](O)[C@H](C)O1 [Daunorubicin] | global dissolution of condensates | immediately incorporate into MED1 droplets | effect on transcriptional condensates ([1]; listed as daunorubicin): cause condensate dissolution
6 | CN(C)C/C=C/C(=O)Nc1ccc(C(=O)Nc2cccc(Nc3ncc(Cl)c(-c4c[nH]c5ccccc45)n3)c2)cc1 [THZ1] | global dissolution of condensates | concentrated preferentially in MED1 droplets | droplet formation of small molecule alone [3]: diffuse fluorescent signal
7 | N.N.[Cl][Pt+2][Cl] [Transplatin, transplatin] | – | – | chase out of cisplatin-TR from MED1 droplets by unlabeled compound [4]: not able to chase out cisplatin-TR; chase out of cisplatin-TR from MED1 droplets by unlabeled compound ([4]; listed as isomer of cisplatin): did not exhibit the same behavior
8 | N#CC(=C(/N)Sc1ccccc1N)/C(C#N)=C(/N)Sc1ccccc1N [U0216] | eviction of some condensate components | – | –
9 | COc1cc(/C=C/C(=O)CC(=O)/C=C/c2ccc(O)c(OC)c2)ccc1O [curcumin] | cause condensate dissolution | immediately incorporate into MED1 droplets | –
10 | CTD: RNA polymerase II CTD repeat YSPTSPS peptide | – | – | effect of peptide on ER partitioning / ER/MED1 droplet formation [5]: did not have an effect
11 | QNPILTSLLQITG [LXXLL peptide] | – | – | incorporation of peptide into MED1 droplets ([5]; ER/MED1 droplets): incorporated into MED1 droplets; effect of peptide on ER partitioning / ER/MED1 droplet formation [5]: decrease in partitioning of ER into the MED1 droplet
12 | Texas Red | – | Neither of the two dyes used to visualized drugs were enriched | –
13 | QNPILTSLLQITG (also: fluorescent label, type and position not given here, also called fluorescent peptide) [LXXLL peptide (QNPILTSLLQITG; SEQ ID NO: 1)] | – | – | binding result [6]: binds
